ChEMBL document CHEMBL1201862, “PubChem BioAssay data set” (2004)
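A five-concentration, 48-hour dose response in 96-well plates underlies each endpoint, interpolated linearly between surrounding concentrations. GI50 = concentration required for 50% inhibition of growth.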 Activity calls are given as the source filed them. Rule as the data show it: active = GI50 up to about 1.1 µM and inactive = higher.

Columns and labels:
Experiment in all cases: inhibition of tumour cell growth, NCI panel, 48 h
[1] = system: NCI-H226
[2] = system: ACHN
[3] = system: RXF 393
[4] = system: SF-268
[5] = system: NCI/ADR-RES
[6] = system: A549
[7] = system: KM12
[8] = system: K562
[9] = system: HT-29
[10] = system: MOLT-4
[11] = system: DU-145
[12] = system: UACC-257
[13] = system: CCRF-CEM
[14] = system: OVCAR-5
[15] = system: SK-MEL-28
[16] = system: PC-3
[17] = system: A498
[18] = system: SF-539
[19] = system: HOP-92
[20] = system: MCF7
[21] = system: TK-10
[22] = system: SK-OV-3
[23] = system: MDA-MB-231
[24] = system: LOX IMVI
[25] = system: U-251
[26] = system: HCT-15
[27] = system: UO-31
[28] = system: MDA-MB-435
[29] = system: MDA-N
[30] = system: T47D
[31] = system: 786-0
[32] = system: NCI-H522
[33] = system: IGROV-1
[34] = system: HCT-116
[35] = system: COLO 205
[36] = system: SK-MEL-5
[37] = system: M14
[38] = system: SF-295
[39] = system: HCC 2998
[40] = system: SR
[41] = system: HL-60
[42] = system: NCI-H460
[43] = system: SN12C
[44] = system: Hs-578T
[45] = system: UACC-62
[46] = system: NCI-H23
[47] = system: EKVX
[48] = system: SNB-19
[49] = system: OVCAR-4
[50] = system: CAKI-1
[51] = system: HOP-62
[52] = system: Malme-3M
[53] = system: OVCAR-8
[54] = system: BT-549
[55] = system: OVCAR-3
[56] = system: SW-620

SMILES: COc1ccc2c(c1)C1=NCCN(C)c3ccc([N+](=O)[O-])c(c31)N2
- GI50 [1]: 502 nM (active)
- GI50 [2]: 465 nM (active)
- GI50 [3]: 277 nM (active)
- GI50 [4]: 731 nM (active)
- GI50 [5]: 665 nM (active)
- GI50 [6]: 525 nM (active)
- GI50 [7]: 1210 nM (inactive)
- GI50 [8]: 12200 nM (inactive)
- GI50 [9]: 573 nM (active)
- GI50 [10]: 705 nM (active)
- GI50 [11]: 1020 nM (active)
- GI50 [12]: 2540 nM (inactive)
- GI50 [13]: 5730 nM (inactive)
- GI50 [14]: 2190 nM (inactive)
- GI50 [15]: 2550 nM (inactive)
- GI50 [16]: 583 nM (active)
- GI50 [17]: 1610 nM (inactive)
- GI50 [18]: 423 nM (active)
- GI50 [19]: 1400 nM (inactive)
- GI50 [20]: 1150 nM (inactive)
- GI50 [21]: 2860 nM (inactive)
- GI50 [22]: 2230 nM (inactive)
- GI50 [23]: 565 nM (active)
- GI50 [24]: 431 nM (active)
- GI50 [25]: 1340 nM (inactive)
- GI50 [26]: 460 nM
- GI50 [27]: 555 nM (active)
- GI50 [28]: 748 nM (active)
- GI50 [29]: 546 nM (active)
- GI50 [30]: 2660 nM (inactive)
- GI50 [31]: 430 nM (active)
- GI50 [32]: 635 nM (active)
- GI50 [33]: 1410 nM (inactive)
- GI50 [34]: 312 nM (active)
- GI50 [35]: 533 nM (active)
- GI50 [36]: 1450 nM (inactive)
- GI50 [37]: 1000 nM (active)
- GI50 [38]: 1020 nM (active)
- GI50 [39]: 1260 nM (inactive)
- GI50 [40]: 2880 nM (inactive)
- GI50 [41]: 3160 nM (inactive)
- GI50 [42]: 271 nM (active)
- GI50 [43]: 796 nM (active)
- GI50 [44]: 1660 nM (inactive)
- GI50 [45]: 1100 nM (active)
- GI50 [46]: 891 nM (active)
- GI50 [47]: 1560 nM (inactive)
- GI50 [48]: 652 nM (active)
- GI50 [49]: 685 nM (active)
- GI50 [50]: 698 nM (active)
- GI50 [51]: 785 nM (active)
- GI50 [52]: 1040 nM (active)
- GI50 [53]: 900 nM (active)
- GI50 [54]: 2910 nM (inactive)
- GI50 [55]: 1360 nM (inactive)
- GI50 [56]: 415 nM (active)
